# In patent publication US20220142941A1, “COMBINATION THERAPEUTIC REGIMENS WITH 1,6-DIBROMO-1,6-DIDEOXY-DULCITOL” (Eleison Pharmaceuticals LLC, priority 2019, published 2022):
# Legend:
# Experiment in all cases: DBD combination treatment, viability enhancement factor
# Format in all cases: cell-based, human
# GS102periNS = GS102periNS (p20 + p21), labelled therapy combined with crystalline DBD polymorph
# Protocol: (§1) Crystalline DBD polymorph treatment was combined with chemotherapy, radiotherapy and targeted inhibitors to determine whether the crystalline DBD polymorph form could: enhance efficacy of the conventional therapies; enhance efficacy when combined with newer ‘targeted’ therapies; or would make (a subset of) cultures more sensitive to this treatment.
# (§2) Therefore, cultures were treated with: • a.
# GS104periNS = GS104periNS (p21 + p22), labelled therapy combined with crystalline DBD polymorph
# Protocol: as §1, §2
# GS184NS = GS184NS (p18 + p19), labelled therapy combined with crystalline DBD polymorph;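 also: DBD at its own IC50 and half IC50 determined at Day 5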
# Protocol: as §1, §2
# GS186coreNS = GS186coreNS (p18), labelled therapy combined with crystalline DBD polymorph
# Protocol: as §1, §2
# GS186periNS = GS186periNS (p15), labelled therapy combined with crystalline DBD polymorph
# Protocol: as §1, §2
# GS224NS = GS224NS (p17), labelled therapy combined with crystalline DBD polymorph
# Protocol: as §1, §2
# GS245NS = GS245NS (p16 + p15), labelled therapy combined with crystalline DBD polymorph
# Protocol: as §1, §2
# GS249NS = GS249NS (p17), labelled therapy combined with crystalline DBD polymorph
# Protocol: as §1, §2
# GS257NS = GS257NS (p16 + p17), labelled therapy combined with crystalline DBD polymorph;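 also: DBD at its own IC50 and half IC50 determined at Day 5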
# Protocol: as §1, §2
# GS261NS = GS261NS (p13), labelled therapy combined with crystalline DBD polymorph
# Protocol: as §1, §2
# GS279coreNS = conditions: Day 5; GS279coreNS (p12 + p13); labelled therapy combined with crystalline DBD polymorph
# Protocol: as §1, §2
# GS279periNS = GS279periNS (p16 + p15), labelled therapy combined with crystalline DBD polymorph;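 also: DBD at its own IC50 and half IC50 determined at Day 5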
# Protocol: as §1, §2
# GS281NS = GS281NS (p15), labelled therapy combined with crystalline DBD polymorph
# Protocol: as §1, §2
# GS289NS = GS289NS (p15 + p16), labelled therapy combined with crystalline DBD polymorph;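 also: DBD at its own IC50 and half IC50 determined at Day 5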
# Protocol: as §1, §2
# GS304NS = GS304NS (p16), labelled therapy combined with crystalline DBD polymorph
# Protocol: as §1, §2
# GS323periNS = conditions: Day 5; GS323periNS (p20 + p19); labelled therapy combined with crystalline DBD polymorph
# Protocol: as §1, §2
# GS324coreNS = GS324coreNS (p19), labelled therapy combined with crystalline DBD polymorph
# Protocol: as §1, §2
# GS359NS = GS359NS (p15 + p14), labelled therapy combined with crystalline DBD polymorph
# Protocol: as §1, §2
# GS365NS = GS365NS (p17 + p16), labelled therapy combined with crystalline DBD polymorph
# Protocol: as §1, §2
# GS203NS = conditions: Day 8; GS203NS (P19 + p18); labelled therapy combined with crystalline DBD polymorph
# Protocol: as §1, §2
SMILES,enhancement factor (viability % of most effective monotherapy divided by viability % of combination) (GS102periNS; Day 5),enhancement factor (viability % of most effective monotherapy divided by viability % of combination) (GS102periNS; Day 8),enhancement factor (viability % of most effective monotherapy divided by viability % of combination) (GS104periNS; Day 8),enhancement factor (viability % of most effective monotherapy divided by viability % of combination) (GS184NS; Day 5),enhancement factor (viability % of most effective monotherapy divided by viability % of combination) (GS184NS; Day 8),enhancement factor (viability % of most effective monotherapy divided by viability % of combination) (GS186coreNS; Day 5),enhancement factor (viability % of most effective monotherapy divided by viability % of combination) (GS186coreNS; Day 8),enhancement factor (viability % of most effective monotherapy divided by viability % of combination) (GS186periNS; Day 5),enhancement factor (viability % of most effective monotherapy divided by viability % of combination) (GS186periNS; Day 8),enhancement factor (viability % of most effective monotherapy divided by viability % of combination) (GS224NS; Day 5),enhancement factor (viability % of most effective monotherapy divided by viability % of combination) (GS224NS; Day 8),enhancement factor (viability % of most effective monotherapy divided by viability % of combination) (GS245NS; Day 5),enhancement factor (viability % of most effective monotherapy divided by viability % of combination) (GS245NS; Day 8),enhancement factor (viability % of most effective monotherapy divided by viability % of combination) (GS249NS; Day 5),enhancement factor (viability % of most effective monotherapy divided by viability % of combination) (GS257NS; Day 5),enhancement factor (viability % of most effective monotherapy divided by viability % of combination) (GS257NS; Day 8),enhancement factor (viability % of most effective monotherapy divided by viability % of combination) (GS279coreNS),enhancement factor (viability % of most effective monotherapy divided by viability % of combination) (GS279periNS; Day 5),enhancement factor (viability % of most effective monotherapy divided by viability % of combination) (GS279periNS; Day 8),enhancement factor (viability % of most effective monotherapy divided by viability % of combination) (GS281NS; Day 5),further results
C[C@]1(c2nc3c(C(N)=O)cccc3[nH]2)CCCN1 [ABT-888],1.248,1.055,1.810,1.084,1.044,1.394,1.359,1.134,1.319,1.105,1.201,1.256,0.991,2.994,0.922,1.053,1.321,1.146,1.102,0.933,enhancement factor (viability % of most effective monotherapy divided by viability % of combination) (GS104periNS; Day 5): 1.175; enhancement factor (viability % of most effective monotherapy divided by viability % of combination) (GS249NS; Day 8): 5.030; enhancement factor (viability % of most effective monotherapy divided by viability % of combination) (GS261NS; Day 5): 1.388; enhancement factor (viability % of most effective monotherapy divided by viability % of combination) (GS261NS; Day 8): 1.631; enhancement factor (viability % of most effective monotherapy divided by viability % of combination) (GS281NS; Day 8): 0.812; enhancement factor (viability % of most effective monotherapy divided by viability % of combination) (GS289NS; Day 5): 1.112; enhancement factor (viability % of most effective monotherapy divided by viability % of combination) (GS289NS; Day 8): 1.113; enhancement factor (viability % of most effective monotherapy divided by viability % of combination) (GS304NS; Day 5): 1.245; enhancement factor (viability % of most effective monotherapy divided by viability % of combination) (GS304NS; Day 8): 1.933; enhancement factor (viability % of most effective monotherapy divided by viability % of combination) (GS323periNS): 1.106; enhancement factor (viability % of most effective monotherapy divided by viability % of combination) (GS324coreNS; Day 5): 1.275; enhancement factor (viability % of most effective monotherapy divided by viability % of combination) (GS324coreNS; Day 8): 1.322; enhancement factor (viability % of most effective monotherapy divided by viability % of combination) (GS359NS; Day 5): 1.175; enhancement factor (viability % of most effective monotherapy divided by viability % of combination) (GS359NS; Day 8): 1.148; enhancement factor (viability % of most effective monotherapy divided by viability % of combination) (GS365NS; Day 5): 1.096; enhancement factor (viability % of most effective monotherapy divided by viability % of combination) (GS365NS; Day 8): 1.052
C/C(=C\C(=O)Nc1ccccc1C(=O)O)c1ccc2ccccc2c1 [BIBR1532],1.414,2.661,1.247,1.752,1.367,1.787,1.498,2.900,1.010,0.969,0.469,1.364,1.936,0.909,1.322,2.162,1.526,1.361,1.214,0.641,enhancement factor (viability % of most effective monotherapy divided by viability % of combination) (GS203NS): 1.110; enhancement factor (viability % of most effective monotherapy divided by viability % of combination) (GS281NS; Day 8): 2.457; enhancement factor (viability % of most effective monotherapy divided by viability % of combination) (GS289NS; Day 5): 1.383; enhancement factor (viability % of most effective monotherapy divided by viability % of combination) (GS289NS; Day 8): 1.879; enhancement factor (viability % of most effective monotherapy divided by viability % of combination) (GS304NS; Day 8): 1.065; enhancement factor (viability % of most effective monotherapy divided by viability % of combination) (GS323periNS): 0.959; enhancement factor (viability % of most effective monotherapy divided by viability % of combination) (GS324coreNS; Day 5): 1.282; enhancement factor (viability % of most effective monotherapy divided by viability % of combination) (GS324coreNS; Day 8): 1.713; enhancement factor (viability % of most effective monotherapy divided by viability % of combination) (GS359NS; Day 5): 2.499; enhancement factor (viability % of most effective monotherapy divided by viability % of combination) (GS359NS; Day 8): 1.168; enhancement factor (viability % of most effective monotherapy divided by viability % of combination) (GS365NS; Day 5): 1.767; enhancement factor (viability % of most effective monotherapy divided by viability % of combination) (GS365NS; Day 8): 2.954
